Experimental data reported in US11051515B2, “3-acyl-benzamides and their use as herbicides” (Bayer Aktiengesellschaft, priority 2017, dated 2021).

Experiments:
LOLMU = assay: Post-emergence action against LOLMU; assay type: in vivo, Lolium multiflorum; settings: Lolium multiflorum, 504 h, dosage 80 g/ha, visual assessment about 3 weeks after treatment vs untreated controls, read-out: Post-emergence action against LOLMU (herbicidal action in percent)
Protocol: Seeds of monocotyledonous and dicotyledonous weed and crop plants are laid out in sandy loam soil in wood-fiber pots, covered with soil and cultivated in a greenhouse under good growth conditions. 2 to 3 weeks after sowing, the test plants are treated at the one-leaf stage. The compounds of the invention, formulated in the form of wettable powders (WP) or as emulsion concentrates (EC), are then sprayed onto the green parts of the plants in the form of an aqueous suspension or emulsion at a water application rate equating to […], with addition of 0.2% wetting agent. After the test plants have been left to stand in the greenhouse under optimal growth conditions for about 3 weeks, the action of the preparations is assessed visually in comparison to untreated controls (herbicidal action in percent (%): 100% activity=the plants have died, 0% activity=like control plants). […] At the same time, inventive compounds leave Gramineae crops such as barley, wheat, rye, millet/Sorghum, corn or rice virtually undamaged when applied post-emergence, even at high active ingredient dosages. In addition, some substances are also harmless to dicotyledonous crops such as soya, cotton, oilseed rape, sugar beet or potatoes. Some of the compounds according to the invention have high selectivity and are therefore suitable for controlling unwanted vegetation in agricultural crops by the post-emergence method. The data of Tables B18 to B34 below illustrate, in an exemplary manner, the […] herbicidal action of the compounds according to the invention, the herbicidal activity being stated in percent.

CYPES [1] = assay: Post-emergence action against CYPES; assay type: in vivo, Cyperus esculentus; settings: Cyperus esculentus, 504 h; post-emergence, dosage 80 g/ha, visual assessment about 3 weeks after treatment vs untreated controls; read-out: Post-emergence action against CYPES (herbicidal action in percent)
How it was run: (§1)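 Weeds grown in sandy loam in greenhouse, treated at one-leaf stage (2–3 weeks after sowing) with WP or EC formulations sprayed as aqueous suspension/emulsion at 600 to […] water with 0.2% wetting agent. Visual rating after about 3 weeks versus untreated controls, as % herbicidal action (100% = plants dead, 0% = like control).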

ABUTH [2] = assay: Post-emergence action against ABUTH; assay type: in vivo, Abutilon theophrasti; settings: Abutilon theophrasti, 504 h; post-emergence, dosage 80 g/ha, visual assessment about 3 weeks after treatment vs untreated controls; read-out: Post-emergence action against ABUTH (herbicidal action in percent)
How it was run: as §1

AVEFA [3] = assay: Pre-emergence action against AVEFA; assay type: in vivo, Avena fatua; settings: Avena fatua, 504 h, dosage 320 g/ha, scored visually after 3 weeks vs untreated controls, read-out: Pre-emergence action against AVEFA (herbicidal activity)
How it was run: (§2)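 Seeds sown in sandy loam in wood-fiber pots and covered with soil. Greenhouse growth; visual damage scored after 3 weeks versus untreated controls (100% = dead, 0% = like control).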

MATIN [4] = assay: Post-emergence action against MATIN; assay type: in vivo, Matricaria inodora; settings: Tripleurospermum inodorum, 504 h; post-emergence, dosage 80 g/ha, visual assessment about 3 weeks after treatment vs untreated controls; read-out: Post-emergence action against MATIN (herbicidal action in percent)
How it was run: as §1

AMARE [5] = assay: Pre-emergence action against AMARE; assay type: in vivo, Amaranthus retroflexus; settings: Amaranthus retroflexus, 504 h; pre-emergence, dosage 320 g/ha, scored visually after 3 weeks vs untreated controls; read-out: Pre-emergence action against AMARE (herbicidal activity)
How it was run: as §2

AMARE [6] = assay: Post-emergence action against AMARE; assay type: in vivo, Amaranthus retroflexus; settings: Amaranthus retroflexus, 504 h; post-emergence, dosage 80 g/ha, visual assessment about 3 weeks after treatment vs untreated controls; read-out: Post-emergence action against AMARE (herbicidal action in percent)
How it was run: as §1

ABUTH [7] = assay: Pre-emergence action against ABUTH; assay type: in vivo, Abutilon theophrasti; settings: Abutilon theophrasti, 504 h; pre-emergence, dosage 320 g/ha, scored visually after 3 weeks vs untreated controls; read-out: Pre-emergence action against ABUTH (herbicidal activity)
How it was run: as §2

ECHCG [8] = assay: Pre-emergence action against ECHCG; assay type: in vivo, Echinochloa crus-galli; settings: Echinochloa crus-galli, 504 h; pre-emergence, dosage 320 g/ha, scored visually after 3 weeks vs untreated controls; read-out: Pre-emergence action against ECHCG (herbicidal activity)
How it was run: as §2

PHBPU [9] = assay: Pre-emergence action against PHBPU; assay type: in vivo, Pharbitis purpurea; settings: Ipomoea purpurea, 504 h; Dosage 320 g/ha, pre-emergence
How it was run: as §2

CYPES [10] = assay: Pre-emergence action against CYPES; assay type: in vivo, Cyperus esculentus; settings: Cyperus esculentus, 504 h; pre-emergence, dosage 320 g/ha, scored visually after 3 weeks vs untreated controls; read-out: Pre-emergence action against CYPES (herbicidal activity)
How it was run: as §2

VIOTR [11] = assay: Pre-emergence action against VIOTR; assay type: in vivo, Viola tricolor; settings: Viola tricolor, 504 h; Dosage 320 g/ha, pre-emergence
How it was run: as §2

AVEFA [12] = assay: Post-emergence action against AVEFA; assay type: in vivo, Avena fatua; settings: Avena fatua, 504 h; post-emergence, dosage 80 g/ha, visual assessment about 3 weeks after treatment vs untreated controls; read-out: Post-emergence action against AVEFA (herbicidal action in percent)
How it was run: as §1

STEME = assay: Post-emergence action against STEME; assay type: in vivo, Stellaria media; settings: Stellaria media, 504 h; post-emergence, dosage 80 g/ha
How it was run: as §1

SETVI [13] = assay: Pre-emergence action against SETVI; assay type: in vivo, Setaria viridis; settings: Setaria viridis, 504 h; pre-emergence, dosage 320 g/ha, scored visually after 3 weeks vs untreated controls; read-out: SETVI (Table B8, pre-emergence herbicidal activity)
How it was run: as §2

VIOTR [14] = assay: Post-emergence action against VIOTR; assay type: in vivo, Viola tricolor; settings: Viola tricolor, 504 h; post-emergence, dosage 80 g/ha
How it was run: as §1

VERPE [15] = assay: Post-emergence action against VERPE; assay type: in vivo, Veronica persica; settings: Veronica persica, 504 h, dosage 80 g/ha
How it was run: as §1

ALOMY [16] = assay: Pre-emergence action against ALOMY; assay type: in vivo, Alopecurus myosuroides; settings: Alopecurus myosuroides, 504 h; dosage 320 g/ha; pre-emergence; scored visually after 3 weeks vs untreated controls; 100% = plants have died, 0% = like control plants; read-out: Pre-emergence action against ALOMY (herbicidal activity in percent)
How it was run: as §2

MATIN [17] = assay: Pre-emergence action against MATIN; assay type: in vivo, Matricaria inodora; settings: Tripleurospermum inodorum, 504 h; Dosage 320 g/ha, pre-emergence
How it was run: as §2

SETVI [18] = assay: Post-emergence action against SETVI; assay type: in vivo, Setaria viridis; settings: Setaria viridis, 504 h; post-emergence, dosage 80 g/ha, visual assessment about 3 weeks after treatment vs untreated controls; read-out: Post-emergence action against SETVI (herbicidal action in percent)
How it was run: as §1

PHBPU [19] = assay: Post-emergence action against PHBPU; assay type: in vivo, Pharbitis purpurea; settings: Ipomoea purpurea, 504 h; post-emergence, dosage 80 g/ha
How it was run: as §1

ALOMY [20] = assay: Post-emergence action against ALOMY; assay type: in vivo, Alopecurus myosuroides; settings: Alopecurus myosuroides, 504 h; Dosage 80 g/ha, post-emergence
How it was run: as §1

ECHCG [21] = assay: Post-emergence action against ECHCG; assay type: in vivo, Echinochloa crus-galli; settings: Echinochloa crus-galli, 504 h; post-emergence, dosage 80 g/ha, visual assessment about 3 weeks after treatment vs untreated controls; read-out: Post-emergence action against ECHCG (herbicidal action in percent)
How it was run: as §1

POLCO = assay: Post-emergence action against POLCO; assay type: in vivo, Polygonum convolvulus; settings: Fallopia convolvulus, 504 h; post-emergence, dosage 80 g/ha
How it was run: as §1

VERPE [22] = assay: Pre-emergence action against VERPE; assay type: in vivo, Veronica persica; settings: Veronica persica, 504 h; Dosage 320 g/ha, pre-emergence
How it was run: as §2

Structure (SMILES)	pest or weed control at 80 g/ha (LOLMU) [%]	pest or weed control at 80 g/ha (CYPES [1]) [%]	pest or weed control at 80 g/ha (ABUTH [2]) [%]	pest or weed control at 320 g/ha (AVEFA [3]) [%]	pest or weed control at 80 g/ha (MATIN [4]) [%]	pest or weed control at 320 g/ha (AMARE [5]) [%]	pest or weed control at 80 g/ha (AMARE [6]) [%]	pest or weed control at 320 g/ha (ABUTH [7]) [%]	pest or weed control at 320 g/ha (ECHCG [8]) [%]	pest or weed control at 320 g/ha (PHBPU [9]) [%]	pest or weed control at 320 g/ha (CYPES [10]) [%]	pest or weed control at 320 g/ha (VIOTR [11]) [%]	pest or weed control at 80 g/ha (AVEFA [12]) [%]	pest or weed control at 80 g/ha (STEME) [%]	pest or weed control at 320 g/ha (SETVI [13]) [%]	pest or weed control at 80 g/ha (VIOTR [14]) [%]	pest or weed control at 80 g/ha (VERPE [15]) [%]	pest or weed control at 320 g/ha (ALOMY [16]) [%]	pest or weed control at 320 g/ha (MATIN [17]) [%]	pest or weed control at 80 g/ha (SETVI [18]) [%]	also measured
Cc1c(C(=O)Nc2nnnn2C)ccc(C(F)(F)F)c1C(=O)C1CC1 [1-18, 3-(cyclopropylcarbonyl)-2-methyl-N-(1-methyl-1H-tetrazol-5-yl)-4-(trifluoromethyl)benzamide]	90	90	80	100	100	100	90	100	100	90	90	100	100	100	100	100	100	100	100	100	pest or weed control at 80 g/ha (PHBPU [19]): 100%; pest or weed control at 80 g/ha (ALOMY [20]): 100%; pest or weed control at 80 g/ha (ECHCG [21]): 90%
CCC(=O)c1c(C(F)(F)F)ccc(C(=O)Nc2nnnn2C)c1Cl [1-138]	100	90	80	100	100	100	80	100	100	90	100	100	100	100	100	100	90	100	100	90	pest or weed control at 80 g/ha (POLCO): 80%; pest or weed control at 80 g/ha (PHBPU [19]): 100%; pest or weed control at 320 g/ha (VERPE [22]): 100%; pest or weed control at 80 g/ha (ALOMY [20]): 100%; pest or weed control at 80 g/ha (ECHCG [21]): 90%
